From PubChem BioAssay AID200 (DTP/NCI, 2004) come the findings set out here.

Values joined by “and” are separate entries in the source; they are usually repeats but may differ in a detail not shown here. Equal entries are not always repeated. Toxic doses and inconclusive results are not listed. Where a SMILES comes first, the peptide text is derived from it. Bridges are numbered along the chain shown (N, C = ends).

The subject of the assay is B6C3F1 mice, B16 melanoma ip, median survival T/C. Description: NCI In Vivo Anticancer Drug Screen. Data for tumor model B16 Melanoma (intraperitoneal) in B6C3F1 mice. Conditions: endpoint: median survival time, schedule: Q01DX009 (ip), higher = longer survival. Summed up: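 Mice bearing transplanted tumor were dosed with compound or vehicle, and survival was recorded. Activity is expressed as the treated-group measurement (T) divided by the vehicle control measurement (C).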

The mark [1] stands for this setting: dose: 5.0 mg/kg/injection, vehicle: saline with Tween-80.
The mark [2] stands for this setting: dose: 20.0 mg/kg/injection, vehicle: saline with Tween-80.
The mark [3] stands for this setting: dose: 12.5 mg/kg/injection, vehicle: saline with Tween-80.
Setting [4] is: dose: 25.0 mg/kg/injection, vehicle: saline with Tween-80.
Where [5] appears, read: dose: 50.0 mg/kg/injection, vehicle: saline with Tween-80.
The mark [6] stands for this setting: dose: 100.0 mg/kg/injection, vehicle: saline with Tween-80.
The mark [7] stands for this setting: dose: 200.0 mg/kg/injection, vehicle: saline with Tween-80.
Setting [8] is: dose: 400.0 mg/kg/injection, vehicle: saline with Tween-80.
Setting [9] is: dose: 100.0 mg/kg/injection, vehicle: Klucel (hydroxypropylcellulose) (HPC).
[10] abbreviates: dose: 200.0 mg/kg/injection, vehicle: Klucel (hydroxypropylcellulose) (HPC).
[11] abbreviates: dose: 12.5 mg/kg/injection, vehicle: saline.
The mark [12] stands for this setting: dose: 25.0 mg/kg/injection, vehicle: saline.
[13] abbreviates: dose: 50.0 mg/kg/injection, vehicle: saline.
The mark [14] stands for this setting: dose: 100.0 mg/kg/injection, vehicle: saline.
Setting [15] is: dose: 200.0 mg/kg/injection, vehicle: saline.
[16] abbreviates: dose: 400.0 mg/kg/injection, vehicle: saline.
Where [17] appears, read: dose: 12.5 mg/kg/injection, vehicle: Klucel (hydroxypropylcellulose) (HPC).
Setting [18] is: dose: 25.0 mg/kg/injection, vehicle: Klucel (hydroxypropylcellulose) (HPC).
Where [19] appears, read: dose: 50.0 mg/kg/injection, vehicle: Klucel (hydroxypropylcellulose) (HPC).

For the molecule `N=C1C=C[C@]2(O)C[C@H](Cl)CN12`, the T/C is, setting by setting: (dose: 0.75 mg/kg/injection, vehicle: saline) 102 % of control; (dose: 1.5 mg/kg/injection, vehicle: saline) 111 % of control; (dose: 3.0 mg/kg/injection, vehicle: saline) 119 % of control; (dose: 6.0 mg/kg/injection, vehicle: saline) 104 % of control.
Take `CC1C(=O)c2cc3c(cc2CCN(C)Cc2c1ccc1c2OCO1)OCO3` (stereo unspecified): the T/C is, setting by setting: under setting [1], 100 % of control; (dose: 10.0 mg/kg/injection, vehicle: saline with Tween-80) 104 % of control; under setting [2], 103 % of control.
On to `S=c1[nH]cc2cnccn12`, for which the T/C was 94 % of control and 95 % of control under setting [3]; 93 % of control and 98 % of control under setting [4]; 93 % of control and 96 % of control under setting [5]; 97 % of control and 100 % of control under setting [6]; 91 % of control and 92 % of control under setting [7]; 97 % of control under setting [8].
Regarding `CCC(C)C1NC(=O)C(CC(C)C)NC(=O)C(C(C)C)NC(=O)C2CSSCC(NC1=O)C(=O)N2` (stereo unspecified) (cyclo(CCVLI); disulfide 1-2; configuration not given here), the T/C is, setting by setting: (dose: 31.25 micrograms/kg/injection, vehicle: Klucel (hydroxypropylcellulose) (HPC)) 105 % of control; (dose: 62.5 micrograms/kg/injection, vehicle: Klucel (hydroxypropylcellulose) (HPC)) 105 % of control; (dose: 125.0 micrograms/kg/injection, vehicle: Klucel (hydroxypropylcellulose) (HPC)) 96 % of control; (dose: 500.0 micrograms/kg/injection, vehicle: Klucel (hydroxypropylcellulose) (HPC)) 94 % of control; (dose: 1000.0 micrograms/kg/injection, vehicle: Klucel (hydroxypropylcellulose) (HPC)) 95 % of control.
On to `CCC(C)C(NC(=O)OCC1c2ccccc2-c2ccccc21)C(=O)O` (stereo unspecified), for which the T/C reads like this: under setting [9], 101 % of control and 102 % of control; under setting [10], 98 % of control and 100 % of control.
In the case of `O=C(N/N=C/c1c(O)ccc2ccccc12)C(=O)N/N=C/c1c(O)ccc2ccccc12`, the T/C by setting is: under setting [3], 110 % of control and 94 % of control and 107 % of control; under setting [4], 111 % of control and 112 % of control and 118 % of control; under setting [6], 94 % of control.
On to `C=C(C)C(=O)OCC12CCC(C)=CC1OC1C(O)C(OC(=O)CCl)C2(C)C12CO2` (stereo unspecified), for which the T/C was 163 % of control (dose: 0.5 mg/kg/injection, vehicle: water); 163 % of control (dose: 1.0 mg/kg/injection, vehicle: water); 159 % of control (dose: 2.0 mg/kg/injection, vehicle: water).
As to `[Cl][Pt+2][Cl].[NH-]c1ccc(Cl)cc1[NH-]`, the T/C was 116 % of control (dose: 2.5 mg/kg/injection, vehicle: saline with Tween-80) and 168 % of control under setting [2].
For the molecule `CCCCCC#CC1OC12CCCCC2` (stereo unspecified), the T/C was 100 % of control under setting [3]; 99 % of control under setting [11]; 100 % of control under setting [4]; 105 % of control under setting [12]; 108 % of control under setting [5]; 104 % of control under setting [13]. The T/C runs as follows: under setting [6], 100 % of control; under setting [14], 97 % of control; under setting [7], 93 % of control; under setting [15], 95 % of control.
Consider `OCC12COCN1COC2`, for which the T/C reads like this: under setting [11], 98 % of control; under setting [12], 113 % of control; under setting [13], 113 % of control and 101 % of control; under setting [14], 110 % of control and 100 % of control; under setting [15], 108 % of control and 110 % of control; under setting [16], 121 % of control and 105 % of control.
`CC(C)(C)C(=O)CC(=O)C(F)(F)C(F)(F)C(F)(F)F.CC(C)(C)C(=O)CC(=O)C(F)(F)C(F)(F)C(F)(F)F.CC(C)(C)C(=O)CC(=O)C(F)(F)C(F)(F)C(F)(F)F.[Er]`: the T/C is 105 % of control (dose: 12.5 mg/kg/injection, vehicle: saline + alcohol); 118 % of control (dose: 25.0 mg/kg/injection, vehicle: saline + alcohol); 109 % of control (dose: 50.0 mg/kg/injection, vehicle: saline + alcohol); 111 % of control (dose: 100.0 mg/kg/injection, vehicle: saline + alcohol).
On to `[Cl][Pt+2][Cl].[NH-]c1ccccc1[NH-]`, for which the T/C by setting is: (dose: 0.63 mg/kg/injection, vehicle: saline with Tween-80) 99 % of control; (dose: 1.25 mg/kg/injection, vehicle: saline with Tween-80) 111 % of control; under setting [1], 150 % of control.
Regarding `CC1CCC(n2cnc3c(Cl)ncnc32)O1` (stereo unspecified), the T/C was 97 % of control and 104 % of control under setting [17]; 92 % of control and 104 % of control under setting [18]; 92 % of control and 98 % of control under setting [19]; 97 % of control and 104 % of control under setting [9]; 92 % of control and 93 % of control under setting [10].
With `CC(C)(C)C(=O)Oc1ccc(N=C(N)N)cc1`, the T/C was 94 % of control under setting [11], 94 % of control under setting [12], 97 % of control under setting [13] and 92 % of control under setting [14].
Consider `CCCC1C/C=C/C=C/C=C/C=C/C(OC2OC(C)C(O)C(N)C2O)CC(O)C(C(=O)O)C(O)CC(=O)CC(O)CCCC(=O)CC(O)C(CC)C(=O)O1` (stereo unspecified), for which the T/C reads like this: (dose: 2.5 mg/kg/injection, vehicle: Klucel (hydroxypropylcellulose) (HPC)) 114 % of control; (dose: 5.0 mg/kg/injection, vehicle: Klucel (hydroxypropylcellulose) (HPC)) 106 % of control; (dose: 10.0 mg/kg/injection, vehicle: Klucel (hydroxypropylcellulose) (HPC)) 104 % of control; (dose: 20.0 mg/kg/injection, vehicle: Klucel (hydroxypropylcellulose) (HPC)) 89 % of control.
In the case of `COc1cc(OC)c(OC)cc1/C=C\c1ccnc2ccccc12`, the T/C is 98 % of control under setting [17]; 105 % of control under setting [18]; 108 % of control and 111 % of control under setting [19]; 120 % of control and 107 % of control under setting [9]; 97 % of control under setting [10]; 151 % of control (dose: 400.0 mg/kg/injection, vehicle: Klucel (hydroxypropylcellulose) (HPC)).
Take `CNC=O`: the T/C by setting is: under setting [14], 101 % of control; under setting [15], 108 % of control; under setting [16], 95 % of control.
`Nc1nc(-c2ccc(Cl)c([N+](=O)[O-])c2)c(Br)c(=O)[nH]1`: the T/C (dose: 18.25 mg/kg/injection, vehicle: saline with Tween-80) is 121 % of control; the T/C (dose: 36.5 mg/kg/injection, vehicle: saline with Tween-80) was 118 % of control; the T/C (dose: 73.0 mg/kg/injection, vehicle: saline with Tween-80) was 100 % of control; the T/C (dose: 146.0 mg/kg/injection, vehicle: saline with Tween-80) was 100 % of control.
Consider `Nc1ccc(Cl)c2ccccc12`, for which the T/C under setting [4] was 99 % of control, the T/C under setting [5] was 103 % of control and the T/C under setting [6] is 109 % of control.
For the molecule `O=C1c2ccccc2C(=O)c2c3c(cc(NCCNCCO)c21)N(CCO)CCN3`, the T/C is 108 % of control (dose: 25.0 mg/kg/injection, vehicle: DMSO); 112 % of control (dose: 50.0 mg/kg/injection, vehicle: DMSO); 167 % of control (dose: 100.0 mg/kg/injection, vehicle: DMSO).
In the case of `O=C(O)C1CCCN1C(=O)OCC1c2ccccc2-c2ccccc21` (stereo unspecified), the T/C reads like this: under setting [9], 107 % of control; under setting [10], 104 % of control.
Regarding `O=C(O)C1Cc2nc[nH]c2CN1CO` (stereo unspecified), the T/C reads like this: under setting [3], 104 % of control; under setting [4], 102 % of control; under setting [5], 105 % of control; under setting [6], 109 % of control; under setting [7], 106 % of control; under setting [8], 104 % of control.
